# Reference: patent US10442805B2, “Polymorphic forms of a hydrochloride salt of (S)-2-(1-(9H-purin-6-ylamino)propyl)-5-fluoro-3-phenylquinazolin-4(3H)-one” (GILEAD CALISTOGA LLC, priority 2013, dated 2019)
# Tests used:
# Format in all cases: physicochemical
# [1] = Hydrate screen on the HCl salt: solubility in ethanol/water; details: ethanol/water mixture, aqueous with cosolvent or surfactant or cyclodextrin, thermodynamic from solid; for solubility at 5 days: solubility column beside XRPD after 5 days
# From the text: (§1) Polymorphic Form I of a hydrochloride salt of (S)-2-(1-(9H-purin-6-ylamino)propyl)-5-fluoro-3-phenylquinazolin-4(3H)-one, i.e., Compound of Formula (I), prepared according to the protocols described in Example 1 above was mixed with ethanol and water. XRPDs were taken on Days 5 and 21.
# [2] = Hydrate screen on the HCl salt: solid form by XRPD in ethanol/water (effect of water on stability of Form I); details: for changes in XRPD in the hydrate screen: water/ethanol system
# Experimental: (§2) XRPD patterns were collected at room temperature, using a PANalytical X'Pert MPD Pro Powder X-Ray Diffractometer configured with reflectance stage with spinning, data acquisition range: 2-40 degrees 2θ, Copper (Cu) anode; Kα1/Kα2 radiation; tube current 40 mA; tube tension 45 kV; automatic divergence and anti-scatter slits. Samples were prepared for analysis by distributing solid material as a thin layer on a silicon holder. Each holder was mounted on a reflectance/transmittance stage and rotated during data acquisition.
# as §1
# [3] = Form screen on the HCl salt: solid form by XRPD after suspension in solvent
# Experimental: as §2, with “acquisition. […] After 7 days, a sample of the suspension was removed from the vial/flask, and the sample was centrifuged and filtered to separate the solids from the liquid in the sample. The isolated solids were characterized by XRPD (collected at room temperature). The filtrate was retained. After about 25 days, another sample was removed from the vial/flask, and the sample was centrifuged and filtered to separate the solids from the liquid in the sample. The isolated solids were characterized by XRPD (collected at room temperature).” for “acquisition.”
# [4] = Dynamic vapour sorption (DVS); details: 25° C.
# [5] = XRPD of solvate forms after drying or heating
# Experimental: For Pattern 1, shown in FIGS. 14A and 15B, 50 mg of the hydrochloride salt of the Compound Formula (I) was suspended in propyl acetate (3.5 mL, 70 vol) and held at 50° C. for 15 minutes, after which 1.1 eq of 12M HCl (11.6 μL) was added and the sample slowly cooled from 50° C. to 5° C. at 0.1° C. per minute. The XRPD pattern shown in FIG. 14A was observed while the sample was wet. […] FIG. 14C depicts the XRPD pattern after further heating at about 145° C. for about 16 hours (Pattern 9′).
# For the toluene solvate, shown in FIG. 20 (wet), 50 mg of the polymorphic Form I of a hydrochloride salt of the Compound of Formula (I) was treated with toluene (3.5 mL, 70 vols), producing a suspension at 50° C. This suspension was matured between 50° C. and room temperature (8 hours per cycle) for three days.
# [6] = 114 mg in tetrahydrofuran (THF)
# [7] = 117 mg in isopropyl acetate (IPAc)
# [8] = 140 mg in ethyl acetate (EtOAc)
# [9] = 149 mg in methyl ethyl ketone (MEK)
# [10] = 150 mg in methyl t-butyl ether (MTBE)
# [11] = 154 mg in 2-methyltetrahydrofuran (2-MeTHF)
# [12] = 160 mg in dichloromethane (DCM)
# [13] = 176 mg in methyl isobutyl ketone (MIBK)
smiles,measurement,setting,value
CC[C@H](Nc1ncnc2[nH]cnc12)c1nc2cccc(F)c2c(=O)n1-c1ccccc1 [(S)-2-(1-(9H-purin-6-ylamino)propyl)-5-fluoro-3-phenylquinazolin-4(3H)-one],solubility at 21 days,[1]; Ethanol/water aw 0.2,60 mg/mL
same,solubility at 5 days,[1]; Ethanol/water aw 0.2,26 mg/mL
same,solubility at 21 days,[1]; Ethanol/water aw 0.3,33 mg/mL
same,solubility at 5 days,[1]; Ethanol/water aw 0.3,47 mg/mL
same,solubility at 21 days,[1]; Ethanol/water aw 0.4,66 mg/mL
same,solubility at 5 days,[1]; Ethanol/water aw 0.4,57 mg/mL
same,solubility at 21 days,[1]; Ethanol/water aw 0.5,93 mg/mL
same,solubility at 5 days,[1]; Ethanol/water aw 0.5,72 mg/mL
same,solubility at 21 days,[1]; Ethanol/water aw 0.6,183 mg/mL
same,solubility at 21 days,[1]; Ethanol/water aw 0.7,223 mg/mL
same,solubility at 21 days,[1]; Ethanol/water aw 0.8,174 mg/mL
same,solubility at 21 days,[1]; Ethanol/water aw 0.9,44 mg/mL
same,XRPD after 5 days,[2]; Ethanol/water aw 0.2,Form I
same,XRPD after 21 days,[2]; Ethanol/water aw 0.2,Form I
same,XRPD after 5 days,[2]; Ethanol/water aw 0.3,Form I
same,XRPD after 21 days,[2]; Ethanol/water aw 0.3,Form I
same,XRPD after 5 days,[2]; Ethanol/water aw 0.4,Form I
same,XRPD after 21 days,[2]; Ethanol/water aw 0.4,Form I
same,XRPD after 5 days,[2]; Ethanol/water aw 0.5,Form I
same,XRPD after 21 days,[2]; Ethanol/water aw 0.5,Form I
same,XRPD after 5 days,[2]; Ethanol/water aw 0.6,Form I
same,XRPD after 21 days,[2]; Ethanol/water aw 0.6,Form I
same,XRPD after 5 days,[2]; Ethanol/water aw 0.7,Form I
same,XRPD after 21 days,[2]; Ethanol/water aw 0.7,Form I
same,XRPD after 5 days,[2]; Ethanol/water aw 0.8,Form I
same,XRPD after 21 days,[2]; Ethanol/water aw 0.8,Form I
same,changes in XRPD in the hydrate screen,[2]; all water activities except 0.9,no changes in XRPD
same,changes in XRPD in the hydrate screen,[2]; water activity 0.9,converted some of the hydrochloride salt to polymorphic Form I of the free form
same,XRPD after 7 days,[3]; [6],new
same,XRPD after about 25,[3]; [6],Form IX
same,XRPD after 7 days,[3]; [7],Form I
same,XRPD after about 25,[3]; [7],Form I
same,XRPD after 7 days,[3]; 119 mg in water,Form I
same,XRPD after about 25,[3]; 119 mg in water,Form I
same,XRPD after 7 days,[3]; 120 mg in acetonitrile (ACN),Form I
same,XRPD after about 25,[3]; 120 mg in acetonitrile (ACN),Form I
same,XRPD after 7 days,[3]; 125 mg in acetone,new
same,XRPD after about 25,[3]; 125 mg in acetone,Form X
same,XRPD after 7 days,[3]; 132 mg in 2-propanol,Form I
same,XRPD after about 25,[3]; 132 mg in 2-propanol,mixture
same,XRPD after 7 days,[3]; [8],Form I
same,XRPD after about 25,[3]; [8],Form I
same,XRPD after 7 days,[3]; [9],new
same,XRPD after about 25,[3]; [9],Form VII
same,XRPD after 7 days,[3]; [10],Form I
same,XRPD after about 25,[3]; [10],Form I
same,XRPD after 7 days,[3]; [11],Form V
same,XRPD after about 25,[3]; [11],Form V
same,XRPD after 7 days,[3]; 155 mg in methanol,Form I
same,XRPD after about 25,[3]; 155 mg in methanol,Form I
same,XRPD after 7 days,[3]; 157 mg in Ethanol,Form I
same,XRPD after about 25,[3]; 157 mg in Ethanol,Form I
same,XRPD after 7 days,[3]; [12],new
same,XRPD after about 25,[3]; [12],Form VIII
same,XRPD after 7 days,[3]; 163 mg in n-heptane,Form I
same,XRPD after about 25,[3]; 163 mg in n-heptane,Form I
same,XRPD after 7 days,[3]; [13],Form I
same,XRPD after about 25,[3]; [13],Form VI
same,XRPD after about 25,[3]; 10 g in 1-butanol,Form XIII
same,XRPD after about 25,[3]; 10 g in 1-propanol,Form XII
same,XRPD after about 25,[3]; 10 g in 2-propanol,Form XI
same,DVS: mass change as a function of RH,[4],minor mass increase
"CC[C@H](Nc1ncnc2[nH]cnc12)c1nc2cccc(F)c2c(=O)n1-c1ccccc1 [Pattern 1, (S)-2-(1-(9H-purin-6-ylamino)propyl)-5-fluoro-3-phenylquinazolin-4(3H)-one]",XRPD pattern after drying,[5]; drying in a vacuum oven at about 25° C. for 6 days,Pattern 9
"CC[C@H](Nc1ncnc2[nH]cnc12)c1nc2cccc(F)c2c(=O)n1-c1ccccc1 [Pattern 9, (S)-2-(1-(9H-purin-6-ylamino)propyl)-5-fluoro-3-phenylquinazolin-4(3H)-one]",XRPD pattern after further heating,[5]; further heating at about 145° C. for about 16 hours,Pattern 9′
"CC[C@H](Nc1ncnc2[nH]cnc12)c1nc2cccc(F)c2c(=O)n1-c1ccccc1 [Toluene solvate, (S)-2-(1-(9H-purin-6-ylamino)propyl)-5-fluoro-3-phenylquinazolin-4(3H)-one]",XRPD upon drying,[5]; upon drying,mixture of Pattern 1 and Pattern 9′
